Measured values reported in patent US10238631B2, “Sesquiterpene derivatives and their use in inflammation or cancer treatment” (Academia Sinica, priority 2014, dated 2019).
Read-outs that look alike come from different tables or passages of the source.

Key:
A2058 (BRAF mutation) = assay: MTT cell viability assay, A2058 melanoma; assay type: cell-based, human; details: Homo sapiens, A2058, 24 h
Experimental: (§1) Normal or cancer cells (2×10^3 to 1×10^4 cells/well) were seeded in 96-well plate for overnight and treated with different compounds for 24 h to 72 h. Cells growth were determined by MTT-based colorimetric assays according to. Viability of the test cells treated with vehicle (0.5% DMSO) only was defined as 100% viable. Survival of cells after treatment with DETDs was calculated using the following formula: viable cell number (%)=OD570 (treated cell culture)/OD570 (vehicle control)×100.
(§2) Several genes are involved in melanoma development and pathology; specifically, mutation in V-raf murine sarcoma viral oncogene homolog B1 (B-RAF) occurs approximately 50-60% and in neuroblastoma RAS viral oncogene homolog (N-RAS) occurs about 30% of malignant melanomas. A spectrum of wild-type or mutated melanoma cell lines including B16-F10, MeWo, A375, A2058, HTB-68, and melanocyte were used to study anti-melanoma cell proliferation activity of parental phytocompound DET and newly synthesized DETDs.

[1] = system: M10 normal mammary epithelial cells; assay: MTT cell viability assay, M10 normal cells; assay type: cell-based, human; details: 24 h; for IC50: Homo sapiens, Epithelial cell
Experimental: as §1
(§3) Sixty DETDs were derived from parental compound […] and tested for anti-breast cancer cell activity.

A375 (BRAF mutation) = assay: MTT cell viability assay, A375 melanoma; assay type: cell-based, human; details: Homo sapiens, A-375, 24 h, read-out: IC50 on cell viability, A375 (BRAF mutation)
Experimental: as §1, §2
To investigate whether or not DETD-35 show synergism with PLX4032 against A375 melanoma cells, we performed anti-proliferation assay using MTT reagent to obtain IC50 of each compound. […] The synergistic effect was quantified by combination index (CI) analysis as stated above.

[2] = system: TS/A (ER+, Her2−) murine mammary cancer cells; assay: MTT cell viability assay, TS/A cells; assay type: cell-based; details: Mus musculus, 24 h, read-out: IC50 on cell viability, TS/A (ER+, Her2−)
Experimental: as §1, §3

[3] = system: MeWo (No NRAS or BRAF mutation); assay: MTT cell viability assay, MeWo melanoma; assay type: cell-based, human; details: Homo sapiens, MeWo, 24 h
Experimental: as §1, §2

[4] = system: MDA-MB-231 (ER−, PR−, Her2−) human breast cancer cells; assay: MTT cell viability assay, MDA-MB-231 cells; assay type: cell-based; details: Homo sapiens, MDA-MB-231, 24 h, read-out: IC50 on cell viability, MDA-MB-231 (ER−, PR−, Her2−)
Experimental: as §1, §3

[5] = system: Melanocyte (Normal cells); assay: MTT cell viability assay, normal melanocytes; assay type: cell-based, human; details: Homo sapiens, Melanocyte, 24 h
Experimental: as §1, §2

[6] = system: LPS-induced nitric oxide (NO) production in RAW 264.7 cells; assay: Nitric oxide production in LPS-stimulated macrophages (Griess); assay type: cell-based, mouse; details: Mus musculus; LPS-stimulated RAW264.7, nitrite 24 h after LPS
Experimental: (§4) Marcophages (2×10^5 cells/well in 96-well plate) were treated with compounds for 1 h, then incubated further for 24 h with or without the presence of […] LPS in the cultural medium. Nitrite levels in cell culture medium were determined by the Griess reaction method. In parallel to the Griess assays, macrophage cell viabilities were determined using the MTT based colorimetric assay.
LPS from the outer membrane of Gram-negative bacteria can induce mRNA or protein levels of inducible nitric oxide synthase (iNOS), which catalyzes oxidative deamination of L-arginine to produce nitric oxide (NO). Once NO is predominantly produced, it interacts with superoxide anion and generates highly reactive oxidants resulting in cellular inflammation, DNA, protein and tissue damages, carcinogenesis, and antiapoptosis. We used in vitro LPS stimulated inflammation in RAW264.7 cell system to evaluate the effect of DET and its derivatives DETDs on NO production by determination of nitrite level (equivalent to NO level) in culture medium 24 h after LPS treatment.

[7] = system: MCF-7 (ER+, Her2−) human breast cancer cells; assay: MTT cell viability assay, MCF-7 cells; assay type: cell-based; details: MCF7, 24 h, read-out: IC50 on cell viability, MCF-7 (ER+, Her2−)
Experimental: as §1, §3

[8] = system: RAW264.7 (normal macrophage); assay: MTT cell viability assay, RAW264.7 macrophages; assay type: cell-based, mouse; details: Mus musculus, RAW264.7, 24 h
Experimental: as §1, §4

B16-F10 (NRAS mutation) = assay: MTT cell viability assay, B16-F10 melanoma; assay type: cell-based; details: Mus musculus, B16-F10, 24 h, read-out: IC50 on cell viability, B16-F10 (NRAS mutation)
Experimental: as §1, §2

HTB-68 (NRAS mutation) = assay: MTT cell viability assay, HTB-68 melanoma; assay type: cell-based, human; details: Homo sapiens, 24 h
Experimental: as §1, §2

| Structure (SMILES) | IC50 (A2058 (BRAF mutation)) | IC50 [1] | IC50 (A375 (BRAF mutation); 24 h, MTT) | IC50 [2] | IC50 [3] | IC50 [4] | IC50 [5] | IC50 [6] | IC50 [7] | IC50 [8] | IC50 (B16-F10 (NRAS mutation); 24 h) | IC50 (HTB-68 (NRAS mutation)) | IC50 (A375 (BRAF mutation)) | IC50 (B16-F10 (NRAS mutation)) | IC50 on cell viability, M10 (normal) [1] |
| --- | --- | --- | --- | --- | --- | --- | --- | --- | --- | --- | --- | --- | --- | --- | --- |
| C=C1C(=O)OC2CC3=C[C@@H](C/C(C)=C/C(OC(=O)C=C(C)CCC=C(C)C)[C@H]12)OC3=O (stereo partly shown) [DETD-14] | > 10 µM | > 7.5 µM | > 10 µM | > 7.5 µM | > 10 µM | > 7.5 µM | > 10 µM | 2.2 µM | > 7.5 µM | > 10 µM | > 10 µM | > 10 µM |  |  |  |
| C=C1C(=O)OC2CC3=C[C@@H](C/C(C)=C/C(OC(=O)C(CC)CC)[C@H]12)OC3=O (stereo partly shown) [DETD-16] | > 10 µM | > 7.5 µM | > 10 µM | 2.1 µM | > 10 µM | 7 µM | > 10 µM | 3.2 µM | 3.9 µM | > 10 µM | > 10 µM | > 10 µM |  |  |  |
| C=C1C(=O)OC2CC3=C[C@@H](C/C(C)=C/C(OC(C)=O)[C@H]12)OC3=O (stereo partly shown) [DETD-17] | > 10 µM | > 7.5 µM |  | 3.5 µM | > 10 µM | > 7.5 µM | > 10 µM | 2 µM | 6.7 µM | > 10 µM |  | > 10 µM | > 10 µM | > 10 µM |  |
| C=C1C(=O)OC2CC3=C[C@@H](C/C(C)=C/C(OC(=O)CC(C)CC)[C@H]12)OC3=O (stereo partly shown) [DETD-18] | > 10 µM | > 7.5 µM | > 10 µM | 3.3 µM | > 10 µM | 5.5 µM | > 10 µM | 3.4 µM | 2.6 µM | > 10 µM | 8.4 µM | > 10 µM |  |  |  |
| C=C(CC)C(=O)OC1/C=C(\C)C[C@@H]2C=C(CC3OC(=O)C(=C)[C@@H]13)C(=O)O2 (stereo partly shown) [DETD-19] | > 10 µM | > 7.5 µM | > 10 µM | 1.7 µM | > 10 µM | 4.6 µM | > 10 µM | 3.8 µM | 3.5 µM | > 10 µM | 7.8 µM | > 10 µM |  |  |  |
| C=C1C(=O)OC2CC3=C[C@@H](C/C(C)=C/C(OC(=O)C(C)CCC)[C@H]12)OC3=O (stereo partly shown) [DETD-20] | > 10 µM | > 7.5 µM | > 10 µM | 2.2 µM | > 10 µM | 5.8 µM | > 10 µM | 4.2 µM | 3.5 µM | > 10 µM | 9 µM | > 10 µM |  |  |  |
| C=C1C(=O)OC2CC3=C[C@@H](C/C(C)=C/C(OC(=O)C(CC)CCCC)[C@H]12)OC3=O (stereo partly shown) [DETD-21] | > 10 µM | > 7.5 µM | > 10 µM | 4 µM | > 10 µM | > 7.5 µM | > 10 µM | 4.7 µM | 4.5 µM | > 10 µM | > 10 µM | > 10 µM |  |  |  |
| C=C1C(=O)OC2CC3=C[C@@H](C/C(C)=C/C(OC(=O)C(C)CCCC)[C@H]12)OC3=O (stereo partly shown) [DETD-22] | > 10 µM | 4.7 µM | > 10 µM | 1.8 µM | > 10 µM | 4.3 µM | > 10 µM | 3.5 µM | 2.5 µM | > 10 µM | 6.8 µM | > 10 µM |  |  |  |
| C=C1C(=O)OC2CC3=C[C@@H](C/C(C)=C/C(OC(=O)CC(O)(C(C)C)C(C)C)[C@H]12)OC3=O (stereo partly shown) [DETD-23] | > 10 µM | > 7.5 µM |  | 2.4 µM | > 10 µM | 5.9 µM | > 10 µM | 3.8 µM | 2.5 µM | > 10 µM |  | > 10 µM | > 10 µM | 8.6 µM |  |
| C=C1C(=O)OC2CC3=C[C@@H](C/C(C)=C/C(OC(=O)/C=C/C)[C@H]12)OC3=O (stereo partly shown) [DETD-24] | > 10 µM | > 7.5 µM | > 10 µM | 2.3 µM | > 10 µM | > 7.5 µM | > 10 µM | 4.4 µM | 3.9 µM | > 10 µM | > 10 µM | > 10 µM |  |  |  |
| C=C1C(=O)OC2CC3=C[C@@H](C/C(C)=C/C(OC(=O)/C=C/CC)[C@H]12)OC3=O (stereo partly shown) [DETD-25] | > 10 µM | > 7.5 µM | > 10 µM | 4 µM | > 10 µM | > 7.5 µM | > 10 µM | 4.9 µM | 5.8 µM | > 10 µM | > 10 µM | > 10 µM |  |  |  |
| C=C1C(=O)OC2CC3=C[C@@H](C/C(C)=C/C(OC(=O)/C=C/c4ccc(OC)cc4)[C@H]12)OC3=O (stereo partly shown) [DETD-26] | > 10 µM | 4.7 µM | > 10 µM | 1.5 µM | > 10 µM | 4.1 µM | > 10 µM | 1.7 µM | 3.7 µM | > 10 µM | 5 µM | > 10 µM |  |  | some toxicity |
